# From patent US20250188030A1, “Biphenyl and Phenylpyridine Compounds” (Pfizer Inc., priority 2023, published 2025)
# Read-outs that look alike come from different tables or passages of the source.
# Experiments:
# H3K9AC (HT1080 cells) = assay: H3K9AC Sandwich ELISA Assay in HT1080 cells (KAT2A primary cell-based screening assay); set-up: species or system Human
# Procedure, shortened: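 Acetylated H3K9 quantified by luminescent sandwich ELISA (total H3 capture, H3K9ac detection) on HCl lysates of HT1080 cells. Cells had 24 h compound exposure at 37 °C, top concentration 10 µM, 10-point 3-fold series, 0.1% DMSO; IC50 from four-parameter fitting.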
# KAT2A = KAT2A (Homo sapiens (Human), UniProt Q92830); assay: KAT2A acetyltransferase biochemical assay (RapidFire mass spectrometry, AcCoA to CoA)
# KAT2B = KAT2B (Homo sapiens (Human), UniProt Q92831); assay: KAT2B acetyltransferase biochemical assay (RapidFire mass spectrometry, AcCoA to CoA)
# MM.1S cells = assay: MM1.S 10 Day Proliferation Assay (CellTiter-Glo); type: cell-based, Human
# Procedure, shortened: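 MM.1S cells, 500/well in ultra-low-attachment plates, were pre-incubated 16 h, then exposed to a 10-point 1:3 dilution series (top 10 μM final, 0.1% DMSO) for 10 days at 37 °C, with compound-containing medium refreshed at day 5. Viability was read by CellTiter-Glo luminescence; IC50 came from four-parameter fit.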
# [1] = Homo sapiens, HT-1080, H3K9AC sandwich ELISA
# [2] = read-out: KAT2A Ki at 1 μM AcCoA, 5 μM H3 1-21 peptide, 0.5 nM KAT2A, 90-minute reaction
# [3] = read-out: KAT2B Ki at 1 μM AcCoA, 1 μM AcCoA, 5 μM H3 1-21 peptide, 0.5 nM KAT2B, 90-minute reaction
# [4] = KAT2A Ki at 1 μM AcCoA, 5 μM H3 1-21 peptide, 0.5 nM KAT2A, 90-minute reaction
# Sequence of KAT2A (Q92830 whole entry): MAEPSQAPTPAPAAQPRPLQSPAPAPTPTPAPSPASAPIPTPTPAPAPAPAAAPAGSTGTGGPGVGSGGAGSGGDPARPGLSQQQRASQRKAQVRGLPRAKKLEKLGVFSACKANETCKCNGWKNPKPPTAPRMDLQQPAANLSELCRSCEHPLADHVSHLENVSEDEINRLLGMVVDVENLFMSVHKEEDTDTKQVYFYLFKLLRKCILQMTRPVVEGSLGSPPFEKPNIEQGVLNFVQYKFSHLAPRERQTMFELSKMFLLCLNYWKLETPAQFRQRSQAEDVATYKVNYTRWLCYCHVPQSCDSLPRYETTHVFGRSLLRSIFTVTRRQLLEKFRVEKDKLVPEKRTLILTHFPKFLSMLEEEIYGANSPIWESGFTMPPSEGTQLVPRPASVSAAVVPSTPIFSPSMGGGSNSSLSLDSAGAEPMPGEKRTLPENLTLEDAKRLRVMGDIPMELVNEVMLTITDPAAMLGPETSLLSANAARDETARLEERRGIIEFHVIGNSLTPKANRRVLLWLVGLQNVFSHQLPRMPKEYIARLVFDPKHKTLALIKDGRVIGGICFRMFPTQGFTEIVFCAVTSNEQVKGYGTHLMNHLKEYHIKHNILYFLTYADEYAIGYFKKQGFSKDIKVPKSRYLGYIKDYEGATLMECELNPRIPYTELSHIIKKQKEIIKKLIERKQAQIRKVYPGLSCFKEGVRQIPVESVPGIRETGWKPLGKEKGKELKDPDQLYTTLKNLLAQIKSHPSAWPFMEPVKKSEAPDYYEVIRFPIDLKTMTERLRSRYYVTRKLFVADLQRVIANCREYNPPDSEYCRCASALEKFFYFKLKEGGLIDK
# Sequence of KAT2B (Q92831 2-832): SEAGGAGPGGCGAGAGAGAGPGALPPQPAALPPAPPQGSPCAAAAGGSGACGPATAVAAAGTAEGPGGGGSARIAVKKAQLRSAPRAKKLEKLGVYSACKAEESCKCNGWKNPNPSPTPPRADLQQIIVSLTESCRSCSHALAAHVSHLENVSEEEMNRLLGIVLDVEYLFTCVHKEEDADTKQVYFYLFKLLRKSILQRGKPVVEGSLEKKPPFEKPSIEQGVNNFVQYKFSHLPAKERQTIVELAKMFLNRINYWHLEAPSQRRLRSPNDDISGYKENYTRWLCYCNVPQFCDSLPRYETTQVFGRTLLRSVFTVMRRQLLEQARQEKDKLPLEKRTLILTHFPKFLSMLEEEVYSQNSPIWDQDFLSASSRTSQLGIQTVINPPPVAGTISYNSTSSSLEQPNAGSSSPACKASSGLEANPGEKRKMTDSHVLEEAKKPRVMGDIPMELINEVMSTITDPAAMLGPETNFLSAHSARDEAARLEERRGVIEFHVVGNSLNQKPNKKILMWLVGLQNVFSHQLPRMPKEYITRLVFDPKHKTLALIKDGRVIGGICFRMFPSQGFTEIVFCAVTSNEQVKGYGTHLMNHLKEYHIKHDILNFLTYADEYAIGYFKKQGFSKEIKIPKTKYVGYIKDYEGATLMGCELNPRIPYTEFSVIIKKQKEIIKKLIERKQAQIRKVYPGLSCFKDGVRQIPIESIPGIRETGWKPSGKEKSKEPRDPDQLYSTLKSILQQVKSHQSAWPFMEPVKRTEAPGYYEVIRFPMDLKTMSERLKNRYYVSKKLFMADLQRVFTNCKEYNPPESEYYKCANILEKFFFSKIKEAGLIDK
IC50 (H3K9AC (HT1080 cells); [1]) [nM],Ki (KAT2A; [2]) [nM],Ki (KAT2B; [3]) [nM],IC50 (H3K9AC (HT1080 cells); H3K9AC sandwich ELISA) [nM],"IC50 (MM.1S cells; Homo sapiens, MM1.S, 240 h) [nM]",Ki (KAT2A; [4]) [nM],Ki (KAT2B) [nM],IC50 (MM.1S cells) [nM],Compound
90,33,115,–,–,–,–,–,"CC1(C)C[C@H](C(=O)N[C@@H]2CC[C@@H](Oc3cccc(C(=O)O)c3-c3cccc(F)c3C3CCC3)C2)CN1 (atropisomer, axis not shown) [Example H9, (1ψ)-2′-cyclobutyl-6-{[(1R,3R)-3-{[(3ξ)-5,5-dimethylpyrrolidine-3-carbonyl]amino}cyclopentyl]oxy}-3′-fluoro[1,1′-biphenyl]-2-carboxylic acid]"
–,0.27,0.49,19.5,52,–,–,–,"Cn1cc(-c2ccc(O[C@@H]3CC[C@@H](NC(=O)[C@]4(F)CNC5(CCC5)C4)C3)c(-c3cccc(F)c3C3CCC3)c2)c(C(=O)O)n1 (single isomer, unassigned) [Example J10]"
6.43,20.6,20.3,–,123,–,–,–,"CN1CC(C)(C)C[C@H]1C(=O)N[C@@H]1CC[C@@H](Oc2cccc(C(=O)NS(=O)(=O)N3CC(F)C3)c2-c2cccc(F)c2C2CCC2)C1 (atropisomer, axis not shown) [Example I12, N-[(1R,3R)-3-({(1ψ)-2′-cyclobutyl-3′-fluoro-6-[(3-fluoroazetidine-1-sulfonyl)carbamoyl][1,1′-biphenyl]-2-yl}oxy)cyclopentyl]-1,4,4-trimethyl-L-prolinamide]"
8.38,0.08,0.21,–,15.9,–,–,–,"CN1CC(C)(C)C[C@H]1C(=O)N[C@@H]1CC[C@@H](Oc2ccc(C(C)(C)C(=O)NS(=O)(=O)N(C)C)cc2-c2cccc(F)c2C2CCC2)C1 [Example E4, N-{(1R,3R)-3-[(2′-cyclobutyl-5-{1-[(dimethylsulfamoyl)amino]-2-methyl-1-oxopropan-2-yl}-3′-fluoro[1,1′-biphenyl]-2-yl)oxy]cyclopentyl}-1,4,4-trimethyl-L-prolinamide]"
57.2,18.3,32.9,–,219,–,–,–,"CN1CC(C)(C)C[C@H]1C(=O)N[C@@H]1CC[C@@H](Oc2cccc(C(=O)O)c2-c2cccc(F)c2C2CCC2)C1 (atropisomer, axis not shown) [Example H3, (1ψ)-2′-cyclobutyl-3′-fluoro-6-({(1R,3R)-3-[(1,4,4-trimethyl-L-prolyl)amino]cyclopentyl}oxy)[1,1′-biphenyl]-2-carboxylic acid]"
–,0.26,0.46,3.88,20.6,–,–,–,"Cn1cc(-c2ccc(O[C@@H]3CC[C@@H](NC(=O)[C@]4(F)CNC5(CCC5)C4)C3)c(-c3cccc(F)c3C3CCC3)c2)c(C(C)(C)C(=O)O)n1 (single isomer, unassigned) [Example J7]"
10.2,0.14,0.62,–,–,–,–,–,"CCn1cc(-c2ccc(O[C@@H]3CC[C@@H](NC(=O)[C@@]4(F)CNC5(CCC5)C4)C3)c(-c3cccc(F)c3C3CCC3)c2)c(C(=O)O)n1 (single isomer, unassigned) [Example J13]"
–,–,63.6,84.2,679,–,–,–,"CN1CC(C)(C)C[C@H]1C(=O)N[C@@H]1CC[C@@H](Oc2cccc(CC(=O)O)c2-c2ccccc2C2CCC2)C1 (atropisomer, axis not shown) [Example H6, [(1ψ)-2′-cyclobutyl-6-({(1R,3R)-3-[(1,4,4-trimethyl-L-prolyl)amino]cyclopentyl}oxy)[1,1′-biphenyl]-2-yl]acetic acid]"

# The remaining lines, values behind:
Compound,IC50 (H3K9AC (HT1080 cells); [1]) [nM],Ki (KAT2A; [2]) [nM],Ki (KAT2B; [3]) [nM],IC50 (H3K9AC (HT1080 cells); H3K9AC sandwich ELISA) [nM],"IC50 (MM.1S cells; Homo sapiens, MM1.S, 240 h) [nM]",Ki (KAT2A; [4]) [nM],Ki (KAT2B) [nM],IC50 (MM.1S cells) [nM]
"CC(C)S(=O)(=O)NC(=O)C(C)(C)c1ccc(O[C@@H]2CC[C@@H](NC(=O)[C@]3(F)CNC4(CCC4)C3)C2)c(-c2cccc(F)c2C2CCC2)c1 (single isomer, unassigned) [Example B4]",3.12,0.14,0.15,–,8.38,–,–,–
"CCS(=O)(=O)NC(=O)C(C)(C)c1ccc(O[C@@H]2CC[C@@H](NC(=O)C3(F)CNC4(CCC4)C3)C2)c(-c2cccc(F)c2C2CCC2)c1 (single isomer, unassigned) [Example B2]",–,–,–,3.14,7.51,0.13,0.13,–
"CC(C)(C(=O)NS(C)(=O)=O)c1ccc(O[C@@H]2CC[C@@H](NC(=O)[C@@]3(F)CNC4(CCCC4)C3)C2)c(-c2cccc(F)c2C2CCC2)c1 (single isomer, unassigned) [Example C16]",–,0.08,0.06,23.2,–,–,–,81.8
"CC(C)c1ccccc1-c1cc(C(=O)O)ccc1O[C@@H]1CC[C@@H](NC(=O)[C@@H]2CC(C)(C)CN2C)C1 [Example D5, 2′-(propan-2-yl)-6-({(1R,3R)-3-[(1,4,4-trimethyl-L-prolyl)amino]cyclopentyl}oxy)[1,1′-biphenyl]-3-carboxylic acid]",30.4,12.8,58.8,–,–,–,–,–
"CC1(C)CNC[C@](F)(C(=O)N[C@@H]2CC[C@@H](Oc3ccc(C(C)(C)C(=O)O)cc3-c3cccc(F)c3C3CCC3)C2)C1 (single isomer, unassigned) [Example A16]",–,1.39,2.43,13.4,144,–,–,–
"CCc1c(F)cccc1-c1cc(C(C)(C)C(=O)NS(=O)(=O)CC)ccc1O[C@@H]1CC[C@@H](NC(=O)[C@@]2(F)CNC3(CCCC3)C2)C1 (single isomer, unassigned) [Example C24]",2.77,0.34,0.22,–,9.83,–,–,–
"CC1(C)C[C@@](F)(C(=O)N[C@@H]2CC[C@@H](Oc3ccc(C(C)(C)C(=O)NS(C)(=O)=O)cc3-c3cccc(F)c3C3CCC3)C2)CN1 (single isomer, unassigned) [Example C5]",10.2,0.17,0.18,–,12.6,–,–,–
"CC(C)(C(=O)NS(C)(=O)=O)c1ccc(O[C@@H]2CC[C@@H](NC(=O)[C@@]3(F)CNC4(CCCC4)C3)C2)c(-c2cccc(F)c2C2CCC2)c1 (single isomer, unassigned) [Example C4]",–,0.26,0.14,1.25,–,–,–,5.49
"CC(C)c1c(F)cccc1-c1cc(C(C)(C)C(=O)NS(C)(=O)=O)ccc1O[C@@H]1CC[C@@H](NC(=O)[C@@]2(F)CNC3(CCC3)C2)C1 (single isomer, unassigned) [Example C19]",–,0.12,0.8,5.06,–,–,–,66.7
"CCc1c(F)cccc1-c1cc(C(C)(C)C(=O)NS(C)(=O)=O)ccc1O[C@@H]1CC[C@@H](NC(=O)[C@]2(F)CNC3(CCC3)C2)C1 (single isomer, unassigned) [Example C12]",11,0.5,0.93,–,89.6,–,–,–
"CC(C)(C(=O)NS(=O)(=O)C1(C)CC1)c1ccc(O[C@@H]2CC[C@@H](NC(=O)[C@@]3(F)CNC4(CCC4)C3)C2)c(-c2cccc(F)c2C2CC2)c1 (single isomer, unassigned) [Example C21]",–,0.09,0.11,1.11,13.7,–,–,–
"CCc1c(F)cccc1-c1cc(C(C)(C)C(=O)NS(=O)(=O)CC)ccc1O[C@@H]1CC[C@@H](NC(=O)[C@@]2(F)CNC3(CCCC3)C2)C1 (single isomer, unassigned) [Example C25]",–,0.14,0.55,1.71,–,–,–,9.29
"CC1(C)CNC[C@](F)(C(=O)N[C@@H]2CC[C@@H](Oc3ccc(CC(=O)O)cc3-c3cccc(F)c3C3CCC3)C2)C1 (single isomer, unassigned) [Example A23]",6.36,0.57,2.85,–,60,–,–,–
"CCc1c(F)cccc1-c1cc(C(C)(C)C(=O)NS(=O)(=O)C(C)C)ccc1O[C@@H]1CC[C@@H](NC(=O)[C@@]2(F)CNC3(CCC3)C2)C1 [Example C18, (7S)-N-[(1R,3R)-3-({2′-ethyl-3′-fluoro-5-[2-methyl-1-oxo-1-(propane-2-sulfonamido)propan-2-yl][1,1′-biphenyl]-2-yl}oxy)cyclopentyl]-7-fluoro-5-azaspiro[3.4]octane-7-carboxamide]",2.34,0.1,0.31,–,30.6,–,–,–
"CN1CC2(CCOCC2)C[C@H]1C(=O)N[C@@H]1CC[C@@H](Oc2ccc(C(=O)O)cc2-c2ccccc2C2CCC2)C1 (single isomer, unassigned) [Example D2]",30.6,–,–,–,–,70.3,46.8,–
"CC1(C)C[C@](F)(C(=O)N[C@@H]2CC[C@@H](Oc3ccc(C(C)(C)C(=O)NS(C)(=O)=O)cc3-c3cccc(F)c3C3CCC3)C2)CN1 (single isomer, unassigned) [Example C6]",89.7,2.75,14.8,–,–,–,–,–
"CCc1c(F)cccc1-c1cc(C(C)(C)C(=O)NS(=O)(=O)C(C)C)ccc1O[C@@H]1CC[C@@H](NC(=O)[C@@]2(F)CNC3(CCCC3)C2)C1 (single isomer, unassigned) [Example C29]",1.86,0.14,0.47,–,7.11,–,–,–
